Source: ChEMBL document CHEMBL5543143, “Potentiating Activity of GmhA Inhibitors on Gram-Negative Bacteria” (J Med Chem, 2024)
Active and inactive are the calls of the source. The calls are words filed in the database; no cut-off is given here.

Key:
HepG2 = experiment: Cytotoxicity against human HepG2 cells incubated overnight by Celltiter aqueous one solution cell proliferation assay; type: functional
Escherichia coli [1] = experiment: Potentiation of rifampicin induced antibacterial activity against Escherichia coli C7 (018:K1:H7) assessed as rifampicin MIC incubated overnight by two fold serial dilution assay; type: functional
Escherichia coli [2] = experiment: Antibacterial activity in Escherichia coli C7 (018:K1:H7) assessed as reduction in bacterial growth at 300 uM measured after 24 hrs by time-kill kinetics assay; type: functional, organism-based
Phosphoheptose isomerase = Phosphoheptose isomerase (Escherichia coli (strain K12), UniProt P63224); parameters: species or system K96243
Escherichia coli [3] = experiment: Potentiation of erythromycin induced antibacterial activity against Escherichia coli C7 (018:K1:H7) assessed as erythromycin MIC incubated overnight by two fold serial dilution assay; type: functional

Sequence of Phosphoheptose isomerase (P63224 whole entry, looked up): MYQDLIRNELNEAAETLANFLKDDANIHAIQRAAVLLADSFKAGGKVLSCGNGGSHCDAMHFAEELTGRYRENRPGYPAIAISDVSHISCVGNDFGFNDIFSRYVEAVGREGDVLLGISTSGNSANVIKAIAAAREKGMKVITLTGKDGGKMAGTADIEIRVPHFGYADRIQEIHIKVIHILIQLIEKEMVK

Row | Compound | CC50 (HepG2) [µM] | MIC (Escherichia coli [1]) [µg/mL] | Activity (Escherichia coli [2]) | IC50 (Phosphoheptose isomerase) [µM] | MIC (Escherichia coli [3]) [µg/mL]
1 | O=CN(O)C[C@H](O)[C@H](O)[C@H](O)COP(=O)(O)O | > 1000 | 0.25 | inactive | 0.002 | 1
2 | O=CN(O)C[C@H](O)[C@H](O)[C@H](O)CCP(=O)(O)O | > 1000 |  |  |  | 
